For assay [1], the system named is JEG-3 cells. Briefly: [3H]-thymidine incorporation in JEG-3 cells (JEG-3 protocol). Format: cell-based. On the procedure: In JEG-3 cells (choriocarcinoma cell line) leptin is able to stimulate proliferation up to 3 fold (Biol. Reprod. (2007) 76: 203-10). […] The radioactivity incorporated by the cells is an index of their proliferative activity and is measured in counts per minute (CPM) with a liquid scintillation beta counter.
This finding can be applied to test whether a compound is able to either reproduce the effect of leptin on cell proliferation (leptin receptor agonist mimetic) (i.e., a given compound will cause an increase in incorporated [^3H]-Thymidine by the cells) or to inhibit the effect of leptin (antagonistic effect) by preventing the leptin-mediated increase in [^3H]-thymidine incorporation.
This approach has the advantage of using a non-recombinant system and has reasonable reproducibility and robustness.

Assay [2] has as its system JEG-3 cells. Conditions: JEG-3 cells (choriocarcinoma cell line); Biol. Reprod. (2007) 76: 203-10; cited from earlier work.

pEC50: −log10 of the molar value.

On to “Leptin: hormone synthesized in fat cells that is believed to act in the hypothalamus to reduce food intake and body weight”, for which, in assay [1] (FIG. 4), the “concentration of maximal effect on [3H]-thymidine incorporation” value is on record as 100 nM. In addition, in assay [1] (FIG. 4, read-out: EC50, increase in [3H]-thymidine incorporation), the pEC50 was 8.68. Also, the stimulation of proliferation entry in assay [2] was “up to 3 fold”.
